Assay results from US20140148504A1, “NOVEL USE OF FLAVONE-BASED COMPOUND” (Industry-Academic Cooperation Foundation, Younsei University, priority 2011, published 2014).

Assays:
[1] = system: hairless mice (Hos: HR-1); experiment: In vivo improvement of UV-induced wrinkles, application onto the skin (skin replicas, Skin Visiometer); conditions: UV-exposed hairless mice; for wrinkle formation (skin replicas) in comparison with UV-treated Group: 50 μL applied onto the back every day for 8 weeks, FIG. 12; for Rt, Rm, Rz and Ra values (degree of wrinkle formation): skin application for 8 weeks, p<0.05, FIGS. 13A-13D
Protocol: (§1) Forty eight (48) 6-week-old female hairless mice (Hos: HR-1) were accustomed for a week and randomly divided into six (6) groups, eight (8) mice per each group. The hairless mice were exposed to UV for 8 weeks. UV irradiation was carried out 3 times a week, while the amount of UV irradiation was increased from 1 MED (1 MED=50 mJ/cm^2) to 4 MED which was then kept until the end of the test. Test groups were divided into a total of six groups, i.e. Non UV-treated Group, UV-treated Group, UV+5,7-dimethoxyflavone-treated Group, UV+5,7,4′-trimethoxyflavone-treated Group, UV+3,5,7,3′,4′-pentamethoxyflavone-treated Group, and UV+ethanol extract of Kaempferia parviflora-treated Group. Each sample was dissolved in a mixture solvent of ethanol and polyethylene glycol (7:3, v/v), and 50 μL of each sample was applied onto the back of the mice every day for 8 weeks. For the Non UV-treated group and the UV-treated group, 50 μL of a mixture of ethanol and polyethylene glycol (7:3, v/v) was applied. In order to test the preventative effect of wrinkle formation, skin replicas were taken using silicone polymer (SILFLO Impression Material, Flexico, England). The image files of the skin replicas were subjected to wrinkle evaluation using the computer imaging analysis system, i.e. Skin Visiometer SV 600 software (Courage+Khazaha Electronic, Kln, Germany). Rt, Rm, Rz and Ra values (Rt: the distance from the highest and lowest portions on the skin surface, Rm: the maximum Rt value among five (5) measurements, Rz: the mean Rt value of five measurements, Ra: the arithmetic mean value of surface roughness) were determined The results are shown in FIGS. 12 and 13A to 13D.

[2] = system: hairless mice (Hos: HR-1); experiment: UV-induced Trans-Epidermal Water Loss (TEWL), application onto the skin (Tewameter); assay type: in vivo; conditions: UV-exposed hairless mice, skin application for 8 weeks; back skin
Protocol: as §1
By using Tewameter (TM 300, Courage+Khazaha Electronic, Kln, Germany), Trans-Epidermal Water Loss (TEWL) was measured on the back of the mice in Example 7-1.

[3] = system: hairless mice (Hos: HR-1); experiment: Skin elasticity, oral administration (Cutometer); assay type: in vivo; conditions: UV-exposed hairless mice, oral daily for 8 weeks; flavones 50 mg/kg/day, extract 200 mg/kg/day; Non UV-treated Group = 100
Protocol: (§2) To the hairless mice exposed to UV in Example 7-1,5,7-dimethoxyflavone (50 mg/kg/day), 5,7,4′-trimethoxyflavone (50 mg/kg/day), 3,5,7,3′,4′-pentamethoxyflavone (50 mg/kg/day) and the ethanol extract of Kaempferia parviflora (200 mg/kg/day) dissolved in 0.5% carboxymethyl cellulose solution containing 5% Tween 80 were orally administered daily for 8 weeks. For the control groups (Non UV-treated Group and UV-treated Group), 0.5% carboxymethyl cellulose solution was administered. In order to test the preventative effect of wrinkle formation, skin replicas were taken using silicone polymer (SILFLO Impression Material, Flexico, England). The image files of the skin replicas were subjected to wrinkle evaluation using the computer imaging analysis system, i.e. Skin Visiometer SV 600 software (Courage+Khazaha Electronic, Kln, Germany).
By using Cutometer (MPA 580, Courage+Khazaha Electronic, Germany), skin elasticity was measured on the back of the mice in Example 7-2 and compared with Non UV-treated Group.

[4] = system: Collagenase-1 (Matrix Metalloproteinase-1, MMP-1); experiment: Inhibition of UV-induced Collagenase-1 (MMP-1) production in human fibroblasts (ELISA kit); assay type: cell-based; conditions: 15 mJ UV, 20 μM flavones, 20 μg/ml ethanol extract, FIG. 11
Protocol: (§3) Firstly, human fibroblasts were placed in a 96-well microtiter plate (5,000 cells/well) containing DMEM (Dulbecco's Modified Eagle's Media) which comprises 2.5% bovine fetal serum, and cultured until they reached a growth rate of around 90%. Then, the cells were treated for 24 hours in serum-free DMEM containing 20 μM of 5,7-dimethoxyflavone, 20 μM 5,7,4′-trimethoxyflavone, 20 μM 3,5,7,3′,4′-pentamethoxyflavone and 20 μg/ml of the ethanol extract of Kaempferia parviflora of Examples 1-4, respectively, and followed by the exposure to 15 mJ of UV. Subsequently, the cells were additionally treated with serum-free DMEM containing 20 μM of 5,7-dimethoxyflavone, 20 μM 5,7,4′-trimethoxyflavone, 20 μM 3,5,7,3′,4′-pentamethoxyflavone and 20 μg/ml of the ethanol extract of Kaempferia parviflora of Examples 1-4, respectively. After 24 hours, the cell culture was collected and centrifuged to obtain the supernatant.
For the resulting supernatant, the degree of Collagenase-1 (MMP-1) production was observed by Collagenase-1 Measurement Kit (QIA55, Merch & Co., USA). Firstly, the above obtained cell culture was placed in a 96-well plate evenly coated with primary antibodies against Collagenase-1 (MMP-1), followed by antigen-antibody reaction for 2 hours at room temperature. After 2 hours, primary antibodies against collagen with fluorescence were added to the said 96-well plate for 1 hour. After 1 hour, a substance inducing color formation was added and left for 30 minutes at room temperature. Then, a termination buffer was added to discontinue the color formation, resulting in the formation of yellow color. The degree of yellow color varied depending on the degree of the said reaction process. Absorbance of the 96-well plate showing yellow color was measured with an absorptiometer at 450 nm.

[5] = system: hairless mice (Hos: HR-1); experiment: UV-induced Trans-Epidermal Water Loss (TEWL), oral administration (Tewameter); assay type: in vivo; conditions: UV-exposed hairless mice, oral daily for 8 weeks; flavones 50 mg/kg/day, extract 200 mg/kg/day
Protocol: as §2
By using Tewameter (TM 300, Courage+Khazaha Electronic, Kln, Germany), Trans-Epidermal Water Loss (TEWL) was measured on the back of the mice in Example 7-2.

[6] = system: hairless mice (Hos: HR-1); experiment: Skin elasticity, application onto the skin (Cutometer); assay type: in vivo; conditions: UV-exposed hairless mice, skin application for 8 weeks; Non UV-treated Group = 100
Protocol: as §1
By using Cutometer (MPA 580, Courage+Khazaha Electronic, Germany), skin elasticity was measured on the back of the mice in the above Example 7-1 and compared with Non UV-treated Group.

[7] = system: Procollagen Type-I C Peptide (PIP); experiment: Enhancing effect on collagen production (Procollagen Type-I C Peptide ELISA) in UV-exposed human fibroblasts; assay type: cell-based; conditions: 15 mJ UV, 20 μM flavones, 20 μg/ml ethanol extract, PIP in supernatant
Protocol: as §3, with “supernatant. For the obtained supernatant, the production of Procollagen Type-I C Peptide (PIP), an indicator of collagen production, was quantitatively measured by ELISA kit (MK101, Takara Bio Ink., Japan) so as to observe their effect on collagen production.” for “supernatant.”
Firstly, antibody-PIP conjugates tagged to peroxidase were added to a 96-well plate evenly coated with mouse monoclonal antibodies against Procollagen. Then, the above obtained cell culture was added and reacted for 3 hours in an incubator, followed by the addition of substrate solution for color formation. Upon staying for 15 minutes at room temperature, the reaction was ended after the addition of reaction termination solution. Absorbance was measured with an absorptiometer at 450 nm.

[8] = system: hairless mice (Hos: HR-1); experiment: In vivo improvement of UV-induced wrinkles, oral administration (skin replicas, Skin Visiometer); conditions: UV-exposed hairless mice, oral daily for 8 weeks, flavones 50 mg/kg/day, extract 200 mg/kg/day; for wrinkle formation (skin replicas) compared with UV-treated Group: FIG. 14; for Rt, Rm, Rz and Ra values (degree of wrinkle formation): p<0.05, FIGS. 15A-15D
Protocol: as §2

Compound | wrinkle formation (skin replicas) in comparison with UV-treated Group [1] | Rt, Rm, Rz and Ra values (degree of wrinkle formation) [1] | TEWL [2] [g/m^2/hr] | Degree of skin elasticity [3] [%] | inhibition of Collagenase-1 (MMP-1) activity induced by UV light [4] | TEWL [5] [g/m^2/hr] | Degree of skin elasticity [6] [%] | Content of Collagen [7] [ng/10^5 cell] | wrinkle formation (skin replicas) compared with UV-treated Group [8] | Rt, Rm, Rz and Ra values (degree of wrinkle formation) [8]
COc1cc(OC)c2c(=O)c(OC)c(-c3ccc(OC)c(OC)c3)oc2c1 [3,5,7,3′,4′-pentamethoxyflavone] | remarkable decrease in wrinkle formation | significantly reduced | 22.0 | 81.7 | excellent for inhibiting Collagenase-1 (MMP-1) activity | 20.3 | 72.3 | 226.5 | remarkable decrease in wrinkle formation | significantly reduced
COc1cc(OC)c2c(=O)cc(-c3ccccc3)oc2c1 [5,7-dimethoxyflavone] | remarkable decrease in wrinkle formation | significantly reduced | 19.4 | 77.3 | excellent for inhibiting Collagenase-1 (MMP-1) activity | 16.4 | 83.5 | 236.7 | remarkable decrease in wrinkle formation | significantly reduced
COc1ccc(-c2cc(=O)c3c(OC)cc(OC)cc3o2)cc1 [5,7,4′-trimethoxyflavone] | remarkable decrease in wrinkle formation | significantly reduced | 24.8 | 85.6 | excellent for inhibiting Collagenase-1 (MMP-1) activity | 19.6 | 76.9 | 230.0 | remarkable decrease in wrinkle formation | significantly reduced
